Measurements published in patent publication US20070231320A1, “Eggs having increased antibody titer and methods for making same” (priority 2006, published 2007).

Key:
Assay type in all cases: in vivo, Hyline-98 leghorn hens
[1] = test system: anti-PLA2 antibody titer in egg yolk; test: Egg yolk anti-PLA2 antibody titer by ELISA, first trial: COX inhibitor in feed for 24 h before antigen; conditions: 50 mg indomethacin/kg diet for 24 h before PLA2 injection
Protocol: Hyline-98 leghorn hens were randomly assigned to treatment groups and given free access to standard breeder's mash and water. In a first set of trials, the hens were divided at 245 days of age into two treatment groups. For twenty four hours after the groups were established, a control group (n=6) was fed standard breeder's mash and a test group (n=6) was fed standard breeder's mash supplemented with 50 mg of indomethacin/ kg diet. After twenty four hours, both groups were injected intramuscularly (i.m.) at four sites (each breast muscle and each leg muscle) with 1 ml total of 3 mg PLA2/ml of complete Freund's adjuvant (CFA; Sigma, St. Louis, Mo.) and phosphate buffered saline (PBS) in a 50/50 mixture. Hens were given an i.m. booster injection over the four sites seven days after initial injection with 1 ml total of a 3 mg PLA2/ml of incomplete Freund's adjuvant (IFA; Sigma) and PBS in a 50/50 mixture.
(§1) Eggs were cracked and the yolks and albumin were separated. The antibodies were extracted by a 1:10 dilution of yolk in acidified PBS (pH 5.0) for twelve hours. Antibody titer was assayed by enzyme-linked immunosorbent assay (ELISA) at twenty-eight, thirty-five and forty-two days after exposure to the antigen. Optical density was measured at 450 nm using an HRP enzyme reaction to detect antibody. A standard on each plate was defined as a “positive reaction,” which is defined as twice the optical density of an egg yolk diluted 1:2000 from a hen not immunized against the antigen.

[2] = test system: anti-PLA2 antibody titer in egg yolk; test: Egg yolk anti-PLA2 antibody titer by ELISA, second trial: indomethacin or aspirin in feed for 24 h before antigen; conditions: for anti-PLA2 antibody titer in eggs vs control hens / presence of anti-PLA2 antibodies in eggs: FIG. 2, 50 mg indomethacin/kg diet or 1 g aspirin/kg diet for 24 h before PLA2 injection; for anti-PLA2 antibody titer in eggs vs control hens: 35 and 42 days after exposure; for presence of anti-PLA2 antibodies in eggs: 21 days after exposure
Protocol: as §1
In a second set of trials, the hens were divided at 300 days of age into three treatment groups. For twenty-four hours after the groups were established, a control group (n=6) was fed standard breeder's mash, a first test group (n=6) was fed standard breeder's mash supplemented with 50 mg of indomethacin/kg diet, and a second test group (n=6) was fed standard breeder's mash supplemented with 1 g aspirin/kg diet. After twenty-four hours, the three groups were injected at the four sites with 1 ml total of 3 mg PLA2/ml of CFA and PBS in a 50/50 mixture. Booster injections were given as described above.
Antibody titer was determined as in the first trial at twenty-one, twenty-eight, thirty-five and forty-two days after exposure to the antigen.

[3] = test system: anti-PLA2 antibody titer in egg yolk; test: Egg yolk anti-PLA2 antibody titer by ELISA, third trial: indomethacin or aspirin in feed from day 14 after antigen; conditions: FIG. 3, inhibitor in feed from day 14 after PLA2 injection; for presence of anti-PLA2 antibodies in eggs: 21 days after exposure
Protocol: as §1
In a third set of experiments, the hens were divided at 245 days of age into three treatment groups. On day one, the three groups were injected at the four sites with 1 ml total of 3 mg PLA2/ml of CFA and PBS in a 50/50 mixture. A control group (n=8) was fed standard breeder's mash for the entire trial. Starting on day fourteen after exposure to the antigen, a first test group (n=8) was fed standard breeder's mash supplemented with 50 mg of indomethacin/kg diet and a second test group (n=8) was fed standard breeder's mash supplemented with 1 g aspirin/kg diet.
Antibody titer was determined as in the first two trials at twenty-one, twenty-eight and sixty-three days after the injection of PLA2.

Compound: COc1ccc2c(c1)c(CC(=O)O)c(C)n2C(=O)c1ccc(Cl)cc1 [indomethacin]
- anti-PLA2 antibody titer of eggs relative to eggs from control hens ([1]; 42 days after exposure): nearly triple
- anti-PLA2 antibody titer in eggs vs control hens ([1]; FIG. 1, 28, 35 and 42 days after exposure): significantly increased
- presence of antigen-specific anti-PLA2 antibodies in eggs ([1]; FIG. 1, by 28 days after exposure): contained antigen-specific anti-PLA2 antibodies
- anti-PLA2 antibody titer in eggs vs control hens [2]: significantly increased
- presence of anti-PLA2 antibodies in eggs [2]: had anti-PLA2 antibodies
- anti-PLA2 antibody titer in eggs compared to control ([3]; 21 and 28 days after exposure): not significantly different
- presence of anti-PLA2 antibodies in eggs [3]: contained anti-PLA2 antibodies
- anti-PLA2 antibody titer in eggs compared to control ([3]; 63 days after exposure): control group had a higher antibody titer

Compound: CC(=O)Oc1ccccc1C(=O)O [aspirin]
- anti-PLA2 antibody titer of eggs relative to eggs from control hens ([2]; 1 g aspirin/kg diet for 24 h before PLA2 injection, 42 days after exposure): nearly three times
- effectiveness at increasing antibody titer, aspirin compared with indomethacin ([2]; 1 g aspirin/kg diet vs 50 mg indomethacin/kg diet for 24 h before PLA2 injection): more effective
- anti-PLA2 antibody titer in eggs vs control hens [2]: significantly increased
- presence of anti-PLA2 antibodies in eggs [2]: had anti-PLA2 antibodies
- anti-PLA2 antibody titer in eggs compared to control ([3]; 21 and 28 days after exposure): not significantly different
- presence of anti-PLA2 antibodies in eggs [3]: contained anti-PLA2 antibodies
- anti-PLA2 antibody titer in eggs compared to control ([3]; 63 days after exposure): control group had a higher antibody titer
